Drawing on patent US12398120B2, “Substituted hydantoinamides as ADAMTS7 antagonists” (BAYER AKTIENGESELLSCHAFT, priority 2019, dated 2025), this text covers IC50 for 29 molecules.

The experiment deals with ADAMTS4 (Homo sapiens (Human), UniProt O75173). In words: Selectivity assay for ADAMTS-7 modulators: ADAMTS4 (FRET substrate). In kind it is biochemical. Conditions: ADAMTS4 (R&D 4307-AD) 50 nM, substrate Dabcyl-EEVKAKVQPY-Glu(Edans)-NH2 1 μM, 120 min, 32° C. How it is done:
1 μl test compound solution (dissolved in DMSO, at the corresponding concentration) or pure DMSO as a control was added per well. The enzymatic reaction was initiated by addition of 25 μl of the respective concentration of the respective FRET substrate (see table 2 below) in reaction buffer.
The increase of fluorescence intensity was measured in appropriate fluorescence plate reader (e.g. TECAN Ultra) using the respective wavelengths for excitation and emission. IC50 values were calculated from percentage of inhibition of enzyme activity as a function of test compound concentration.

ADAMTS4, sequence (O75173 213-685): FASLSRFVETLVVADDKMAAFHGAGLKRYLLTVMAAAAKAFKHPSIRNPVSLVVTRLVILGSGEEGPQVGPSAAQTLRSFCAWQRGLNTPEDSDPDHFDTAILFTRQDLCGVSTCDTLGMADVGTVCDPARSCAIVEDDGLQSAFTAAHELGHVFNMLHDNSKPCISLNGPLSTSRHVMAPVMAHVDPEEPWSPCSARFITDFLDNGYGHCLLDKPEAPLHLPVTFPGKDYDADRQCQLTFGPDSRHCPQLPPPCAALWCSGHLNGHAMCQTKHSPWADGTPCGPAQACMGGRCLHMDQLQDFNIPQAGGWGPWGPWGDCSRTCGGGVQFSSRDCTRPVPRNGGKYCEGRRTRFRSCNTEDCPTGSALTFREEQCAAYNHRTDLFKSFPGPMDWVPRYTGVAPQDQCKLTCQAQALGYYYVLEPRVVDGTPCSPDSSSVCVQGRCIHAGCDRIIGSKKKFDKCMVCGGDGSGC

The term IC50 denotes the concentration that gives 50% inhibition. Consider `CCCC1(CNC(=O)c2ccccc2-c2ccc(C(F)(F)F)nc2)NC(=O)NC1=O` (racemic) [Example 57, Rac-N-[(2,5-Dioxo-4-Propylimidazolidin-4-Yl)Methyl]-2-[6-(Trifluoromethyl)Pyridin-3-Yl]Benzamide], for which the IC50 was > 50 µM.

On to `O=C1NC(=O)C(CNC(=O)c2ccc(F)cc2-c2ccc(C(F)(F)F)cc2)(c2ncsc2C2CC2)N1` (stereo not drawn) [Example 273, Ent-N-{[4-(5-Cyclopropyl-1,3-Thiazol-4-Yl)-2,5-Dioxoimidazolidin-4-Yl]Methyl}-5-Fluoro-4′-(Trifluoromethyl)[Biphenyl]-2-Carboxamide], for which the IC50 is 26.8 µM. As to `O=C1NC(=O)C(CNC(=O)c2ccc(F)cc2-c2ccc(C(F)(F)F)cc2)(c2ccnn2C(F)F)N1` (racemic) [Example 262, Rac-N-({4-[1-(Difluoromethyl)-1H-Pyrazol-5-Yl]-2,5-Dioxoimidazolidin-4-Yl}Methyl)-5-Fluoro-4′-(Trifluoromethyl)[Biphenyl]-2-Carboxamide], inhibition was half-maximal at 19 µM (IC50).

`Cc1c(C2(CNC(=O)c3ccccc3-c3ccc(C(F)(F)F)cc3)NC(=O)NC2=O)cnn1CC(F)(F)F` (racemic) [Example 98, Rac-N-({4-[5-Methyl-1-(2,2,2-Trifluoroethyl)-1H-Pyrazol-4-Yl]-2,5-Dioxoimidazolidin-4-Yl}Methyl)-4′-(Trifluoromethyl)[Biphenyl]-2-Carboxamide]: the IC50 came to 21 µM.

`Cn1nccc1C1(CNC(=O)c2cc(F)ccc2-c2ccc(Cl)cc2)NC(=O)NC1=O` (single isomer, unassigned; ent-4) [Example 187, Ent-4′-Chloro-4-Fluoro-N-{[4-(1-Methyl-1H-Pyrazol-5-Yl)-2,5-Dioxoimidazolidin-4-Yl]Methyl}[Biphenyl]-2-Carboxamide] registered an IC50 of 3.55 µM.

`Cc1cnn(C)c1C1(CNC(=O)c2ccccc2-c2ccc(C(F)(F)F)cc2)NC(=O)NC1=O` (racemic) [Example 61, Rac-N-{[4-(1,4-Dimethyl-1H-Pyrazol-5-Yl)-2,5-Dioxoimidazolidin-4-Yl]Methyl}-4′-(Trifluoromethyl)[Biphenyl]-2-Carboxamide] displayed an IC50 of 7.4 µM. As to `O=C1NC(=O)[C@](CNC(=O)c2ccccc2-c2ccc(OC(F)F)cc2)(C2CC2)N1` [Example 127, N-{[(4R)-4-Cyclopropyl-2,5-Dioxoimidazolidin-4-Yl]Methyl}-4′-(Difluoromethoxy)[Biphenyl]-2-Carboxamide], it took 13 µM to reach half-maximal inhibition (IC50). The same measure for `Cc1ccc(-c2ccccc2C(=O)NC[C@@]2(C3CC3)NC(=O)NC2=O)cc1F` [Example 221, N-{[(4R)-4-Cyclopropyl-2,5-Dioxoimidazolidin-4-Yl]Methyl}-3′-Fluoro-4′-Methyl[1,1′-Biphenyl]-2-Carboxamide]: 8.1 µM. As for `O=C1NC(=O)[C@](CNC(=O)c2ccccc2-c2ccccc2)(C2CC2)N1` [Example 131, N-{[(4R)-4-Cyclopropyl-2,5-Dioxoimidazolidin-4-Yl]Methyl}[Biphenyl]-2-Carboxamide], the figure is 8.7 µM; as for `N#Cc1ccc(-c2ccccc2C(=O)NC[C@@]2(C3CC3)NC(=O)NC2=O)cc1` [Example 223, 4′-Cyano-N-{[(4R)-4-Cyclopropyl-2,5-Dioxoimidazolidin-4-Yl]Methyl}[1,1′-Biphenyl]-2-Carboxamide], 26 µM; as for `Cc1nc(C)c(C2(CNC(=O)c3ccccc3-c3ccc(C(F)(F)F)cc3)NC(=O)NC2=O)s1` (racemic) [Example 15, Rac-N-{[4-(2,4-Dimethyl-1,3-Thiazol-5-Yl)-2,5-Dioxoimidazolidin-4-Yl]Methyl}-4′-(Trifluoromethyl)[Biphenyl]-2-Carboxamide], 7.75 µM. As for `Cc1ccc(C(=O)NCC2(C(C)C)NC(=O)NC2=O)c(-c2ccc(C(F)(F)F)cc2)c1` (racemic) [Example 202, Rac-N-[(4-Isopropyl-2,5-Dioxoimidazolidin-4-Yl)Methyl]-5-Methyl-4′-(Trifluoromethyl)[Biphenyl]-2-Carboxamide], the figure is 38 µM; as for `O=C1NC(=O)[C@](CNC(=O)c2ccc(F)cc2-c2ccc(Cl)cc2)(C2CC2)N1` [Example 126, 4′-Chloro-N-{[(4R)-4-Cyclopropyl-2,5-Dioxoimidazolidin-4-Yl]Methyl}-5-Fluoro[Biphenyl]-2-Carboxamide], 11 µM; as for `Cn1nccc1C1(CNC(=O)c2ccc(F)cc2-c2ccc(Cl)cc2)NC(=O)NC1=O` (racemic) [Example 179, Rac-4′-Chloro-5-Fluoro-N-{[4-(1-Methyl-1H-Pyrazol-5-Yl)-2,5-Dioxoimidazolidin-4-Yl]Methyl}[Biphenyl]-2-Carboxamide], 12 µM. Molecule `Cc1ccc(C(=O)NCC2(c3ncsc3C)NC(=O)NC2=O)c(-c2ccc(C(F)(F)F)cc2)c1` (racemic) [Example 167, Rac-5-Methyl-N-{[4-(5-Methyl-1,3-Thiazol-4-Yl)-2,5-Dioxoimidazolidin-4-Yl]Methyl}-4′-(Trifluoromethyl)[Biphenyl]-2-Carboxamide] had an IC50 of 4.4 µM.

In the case of `Cc1nonc1C1(CNC(=O)c2ccccc2-c2ccc(C(F)(F)F)cc2)NC(=O)NC1=O` (racemic) [Example 32, Rac-N-{[4-(4-Methyl-1,2,5-Oxadiazol-3-Yl)-2,5-Dioxoimidazolidin-4-Yl]Methyl}-4′-(Trifluoromethyl)[Biphenyl]-2-Carboxamide], the IC50 is 35 µM.

Molecule `Cc1cnn(C)c1C1(CNC(=O)c2ccccc2-c2ccc(C(F)(F)F)nc2)NC(=O)NC1=O` (racemic) [Example 52, Rac-N-{[4-(1,4-Dimethyl-1H-Pyrazol-5-Yl)-2,5-Dioxoimidazolidin-4-Yl]Methyl}-2-[6-(Trifluoromethyl)Pyridin-3-Yl]Benzamide] displayed an IC50 of 19 µM.

Take `Cn1nccc1C1(CNC(=O)c2ccccc2-c2ccc(S(C)(=O)=O)cc2)NC(=O)NC1=O` (stereo not drawn) [Example 194, Ent-N-{[4-(1-Methyl-1H-Pyrazol-5-Yl)-2,5-Dioxoimidazolidin-4-Yl]Methyl}-4′-(Methylsulfonyl)[Biphenyl]-2-Carboxamide]: the IC50 came out at 8.9 µM. Molecule `CCC(C)C1(CNC(=O)c2ccccc2-c2ccc(C(F)(F)F)nc2)NC(=O)NC1=O` (centres unmarked) [Example 51, Diamix-N-[(4-Sec-Butyl-2,5-Dioxoimidazolidin-4-Yl)Methyl]-2-[6-(Trifluoromethyl)Pyridin-3-Yl]Benzamide] registered an IC50 of 25 µM.

`O=C1NC(=O)C(CNC(=O)c2ccc(F)cc2-c2ccc(Cl)cc2)(C2(F)CC2)N1` (racemic) [Example 249, Rac-4′-Chloro-5-Fluoro-N-{[4-(1-Fluorocyclopropyl)-2,5-Dioxoimidazolidin-4-Yl]Methyl}[Biphenyl]-2-Carboxamide] displayed an IC50 of 35 µM.

For `CC(C)C1(CNC(=O)c2ccc(F)cc2-c2ccc(C(F)(F)F)cc2)NC(=O)NC1=O` (single isomer, unassigned; ent-5) [Example 207, Ent-5-Fluoro-N-[(4-Isopropyl-2,5-Dioxoimidazolidin-4-Yl)Methyl]-4′-(Trifluoromethyl)[Biphenyl]-2-Carboxamide], the IC50 was > 50 µM.

For the molecule `Cc1ccc(C(=O)NC[C@@]2(C3CC3)NC(=O)NC2=O)c(-c2ccc(C(F)(F)F)cc2)c1` [Example 218, N-{[(4R)-4-Cyclopropyl-2,5-Dioxoimidazolidin-4-Yl]Methyl}-5-Methyl-4′-(Trifluoromethyl)[Biphenyl]-2-Carboxamide], inhibition was half-maximal at 4 µM (IC50). Molecule `Cc1ccc(-c2ccc(F)cc2C(=O)NCC2(c3nccn3C)NC(=O)NC2=O)cc1` (single isomer, unassigned; ent-4) [Example 152, Ent-4-Fluoro-4′-Methyl-N-{[4-(1-Methyl-1H-Imidazol-2-Yl)-2,5-Dioxoimidazolidin-4-Yl]Methyl}[Biphenyl]-2-Carboxamide] had an IC50 of 0.705 µM. As for `Cc1ccc(-c2cc(Cl)ccc2C(=O)NC[C@@]2(C3CC3)NC(=O)NC2=O)cc1` [Example 215, 5-Chloro-N-{[(4R)-4-Cyclopropyl-2,5-Dioxoimidazolidin-4-Yl]Methyl}-4′-Methyl[Biphenyl]-2-Carboxamide], the concentration for half-maximal inhibition (IC50) was determined as 3.5 µM. As for `Cc1ncsc1C1(CNC(=O)c2ccccc2-c2ccc(C(F)(F)F)cc2)NC(=O)NC1=O` (racemic) [Example 5, Rac-N-{[4-(4-Methyl-1,3-Thiazol-5-Yl)-2,5-Dioxoimidazolidin-4-Yl]Methyl}-4′-(Trifluoromethyl)[Biphenyl]-2-Carboxamide], the figure is 12 µM; as for `O=C1NC(=O)C(CNC(=O)c2ccccc2-c2ccc(C(F)(F)F)cc2)(c2ncccc2C(F)(F)F)N1` (racemic) [Example 243, Rac-N-({2,5-Dioxo-4-[3-(Trifluoromethyl)Pyridin-2-Yl]Imidazolidin-4-Yl}Methyl)-4′-(Trifluoromethyl)[Biphenyl]-2-Carboxamide], 45 µM; as for `Cn1nccc1C1(CNC(=O)c2c(F)cccc2-c2ccc(Cl)cc2)NC(=O)NC1=O` (single isomer, unassigned; ent-4) [Example 312, Ent-4′-Chloro-3-Fluoro-N-{[4-(1-Methyl-1H-Pyrazol-5-Yl)-2,5-Dioxoimidazolidin-4-Yl]Methyl}[Biphenyl]-2-Carboxamide], 20 µM. As for `CC1CCC1C1(CNC(=O)c2ccccc2-c2ccc(C(F)(F)F)cc2)NC(=O)NC1=O` (stereo not drawn) [Example 26, Ent-N-{[4-(2-Methylcyclobutyl)-2,5-Dioxoimidazolidin-4-Yl]Methyl}-4′-(Trifluoromethyl)[Biphenyl]-2-Carboxamide], the figure is > 50 µM.

Take `O=C1NC(=O)C(CNC(=O)c2ccc(F)cc2-c2ccc(C(F)(F)F)cc2)(C2CCC2)N1` (stereo not drawn) [Example 239, Ent-N-[(4-Cyclobutyl-2,5-Dioxoimidazolidin-4-Yl)Methyl]-5-Fluoro-4′-(Trifluoromethyl)[Biphenyl]-2-Carboxamide]: the IC50 was > 50 µM.
